The source of these data is US5418160A, “Cloned cell line expressing rat β3A adrenergic receptor” (The United States as represented by the Secretary of the …, priority 1991, dated 1995).

Assay [1] deals with brown adipocytes. As to conditions: Arch et al., read-out: EC50 for increases in lipolysis; cited from earlier work.
The target in assay [2] is T1, fat cell β receptor (β3A -adrenergic receptor) (Rattus norvegicus, UniProt P26255).
T1 construct: expressed in transfected cells
Description: Inhibition of BRL 37344-induced cAMP accumulation in transfected CHO cells. It counts as cell-based. The conditions noted are these: read-out: inhibition of BRL 37344-induced cAMP accumulation. From the text:
Using a protocol for cotransfection of CHO cells (a 1.5 kb fragment was excised from pBluescript using Saci (present in the multiple cloning site of the vector) and BamHI and inserted into the Sac/BamH/sites of PSVL (Pharmacie). CHO-K1 cells were cotransfected with pSVL and pMSVneo (neomycin resistance plasmid) F. Z. Chung, C. D. Wang, P. C. Potter, J. C. Venter and C. M. Fraser, J. Biol. Chem. 263, 4052 (1988) using the CaPO4 precipitation technique. Stable transfectants were obtained by growth of the cells in culture medium containing Geneticin (500 μg/ml); colonies derived from single cells were isolated and expanded.
(cAMP levels reflect the balance of adenylyl cyclase and phosphodiesterase activity.)

For assay [3], the target named is β1 -adrenergic receptors. The conditions noted are these: read-out: KD for [125I]-ICYP binding to β1-adrenergic receptors; cited from earlier work.
Assay [4] addresses β3 -adrenergic receptor. The conditions noted are these: read-out: KD reported for [125I]-ICYP binding to the β3-adrenergic receptor; Emorine et al.; cited from earlier work.
Assay [5] addresses β2 -adrenergic receptors. The conditions noted are these: read-out: KD for [125I]-ICYP binding to β2-adrenergic receptors; cited from earlier work.

Read-outs that look alike come from different tables or passages of the source.

T1 sequence (P26255 whole entry): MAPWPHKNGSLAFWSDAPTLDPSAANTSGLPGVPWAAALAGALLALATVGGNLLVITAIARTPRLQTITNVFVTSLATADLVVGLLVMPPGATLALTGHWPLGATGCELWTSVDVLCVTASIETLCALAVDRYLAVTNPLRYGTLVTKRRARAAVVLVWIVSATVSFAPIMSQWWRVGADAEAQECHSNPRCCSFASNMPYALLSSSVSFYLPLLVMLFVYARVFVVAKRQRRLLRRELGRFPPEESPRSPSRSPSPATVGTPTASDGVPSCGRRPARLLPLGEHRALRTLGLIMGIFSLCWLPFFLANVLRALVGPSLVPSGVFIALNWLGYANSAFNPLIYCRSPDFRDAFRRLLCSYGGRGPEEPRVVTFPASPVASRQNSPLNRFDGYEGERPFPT

As to `CC(C)NCC(O)c1ccc(O)c(O)c1` (centres unmarked) [isoproterenol], the EC50 (usually the midpoint of the concentration-response curve) in assay [1] was 8 nM.
In the case of `CC(C)NCC(O)COc1ccc(CC(N)=O)cc1` (centres unmarked) [atenolol], the inhibition (commonly how much of the control response was suppressed) at 100 µM in assay [2] (CHO) was 30%.
As for `COCCc1ccc(OCC(O)CNC(C)C)cc1` (centres unmarked) [metoprolol], the inhibition at 100 µM in assay [2] (CHO) is 70%.
`CC(C)(C)NCC(O)COc1cccc2[nH]c(C#N)c([125I])c12` (centres unmarked) [[^125 1]-ICYP, [^125 1]-iodocyanopindolol]: the Kd (usually the free concentration of one partner at which half of the binding sites on the other are occupied at equilibrium, for simple one-to-one binding) is 0.011 nM in assay [3], 0.5 nM in assay [4] and 0.03 nM in assay [5].
With `CC(Cc1ccc(OCC(=O)O)cc1)NCC(O)c1cccc(Cl)c1` (centres unmarked) [BRL 37344], the EC50 in assay [1] is 1.7 nM.
Turning to `C=CCc1ccccc1OCC(O)CNC(C)C` (centres unmarked) [alprenolol], the inhibition at 100 µM in assay [2] (antagonist at 10^-4 M, transfected CHO cells) is 52%.
